Where “and” joins values, the source holds several entries; their conditions need not be identical. Identical values can stand only once. Inconclusive results and toxic doses are left out. Rule for the calls: active = survival T/C of 150% or more; inactive = T/C below 125% in these data.
Test system: P388 leukemia ip, CD2F1 mice, survival T/C
Assay: NCI In Vivo Anticancer Drug Screen. Data for tumor model P388 Leukemia (intraperitoneal) in CD2F1 (CDF1) mice
Details: endpoint: median survival time, higher = longer survival
Experimental: The antitumor activity of compounds was measured in mice bearing transplantable tumors. Survival or tumor size were measured and the results are expressed as the measurement made in the treated group (T) divided by the measurement made in the vehicle treated control group (C). The tumor model used in this assay is P388 Leukemia (intraperitoneal) in CD2F1 (CDF1) mice

[1] = dose: 100.0 mg/kg/injection, schedule: Q01DX009 (ip), vehicle: saline with Tween-80
[2] = dose: 200.0 mg/kg/injection, schedule: Q01DX009 (ip), vehicle: saline with Tween-80
[3] = dose: 400.0 mg/kg/injection, schedule: Q01DX009 (ip), vehicle: saline with Tween-80
[4] = dose: 60.0 mg/kg/injection, schedule: Q01DX005 (ip), vehicle: saline with Tween-80
[5] = dose: 120.0 mg/kg/injection, schedule: Q01DX005 (ip), vehicle: saline with Tween-80
[6] = dose: 240.0 mg/kg/injection, schedule: Q01DX005 (ip), vehicle: saline with Tween-80
[7] = dose: 50.0 mg/kg/injection, schedule: Q01DX009 (ip), vehicle: Klucel (hydroxypropylcellulose) (HPC)
[8] = dose: 100.0 mg/kg/injection, schedule: Q01DX009 (ip), vehicle: Klucel (hydroxypropylcellulose) (HPC)
[9] = dose: 200.0 mg/kg/injection, schedule: Q01DX009 (ip), vehicle: Klucel (hydroxypropylcellulose) (HPC)
[10] = dose: 25.0 mg/kg/injection, schedule: Q01DX005 (ip), vehicle: Klucel (hydroxypropylcellulose) (HPC)
[11] = dose: 50.0 mg/kg/injection, schedule: Q01DX005 (ip), vehicle: Klucel (hydroxypropylcellulose) (HPC)
[12] = dose: 100.0 mg/kg/injection, schedule: Q01DX005 (ip), vehicle: Klucel (hydroxypropylcellulose) (HPC)
[13] = dose: 100.0 mg/kg/injection, schedule: Q04DX003 (ip), vehicle: Klucel (hydroxypropylcellulose) (HPC)
[14] = dose: 200.0 mg/kg/injection, schedule: Q04DX003 (ip), vehicle: Klucel (hydroxypropylcellulose) (HPC)
[15] = dose: 50.0 mg/kg/injection, schedule: Q01DX009 (ip), vehicle: saline
[16] = dose: 100.0 mg/kg/injection, schedule: Q01DX009 (ip), vehicle: saline
[17] = dose: 200.0 mg/kg/injection, schedule: Q01DX009 (ip), vehicle: saline

Measured: T/C

O=S(=O)(O)CCCBr
inactive: [1] 100 % of control | [2] 104 % of control | [3] 95 % of control

O=C1C(Br)=CC2C1C1C=CC2(Br)C1=O (configuration not stated)
inactive: dose: 30.0 mg/kg/injection, schedule: Q01DX005 (ip), vehicle: saline with Tween-80 105 % of control and 107 % of control | [4] 111 % of control and 112 % of control and 118 % of control | [5] 101 % of control and 111 % of control and 113 % of control | [6] 120 % of control

O=C(O)C(Oc1nc(=S)[nH]c(=S)[nH]1)(c1ccc(Cl)cc1)c1ccc(Cl)cc1
inactive: [4] 103 % of control | [5] 101 % of control | [6] 103 % of control

COC(=O)CCCC/C=C\CCCCCCC1C=CCC1 (configuration not stated)
inactive: dose: 100.0 mg/kg/injection, schedule: Q01DX001 (ip), vehicle: saline 100 % of control | dose: 200.0 mg/kg/injection, schedule: Q01DX001 (ip), vehicle: saline 101 % of control | dose: 400.0 mg/kg/injection, schedule: Q01DX001 (ip), vehicle: saline 101 % of control

CCC(C)C(=O)OC1CC2(C)C(c3ccoc3)OC(=O)CC23OC2(C)OC34C(OC(=O)C(C)C)C3(O)C(OC(=O)C5(C)OC5C)C5(C)CC3(O)C(C)(C5CC(=O)OC)C14O2 (configuration not stated)
inactive: dose: 25.0 mg/kg/injection, schedule: Q01DX009 (ip), vehicle: Klucel (hydroxypropylcellulose) (HPC) 93 % of control | [7] 104 % of control | [8] 102 % of control | [9] 99 % of control

CC1CCCC/C1=N\N(C)C (configuration not stated)
inactive: [4] 100 % of control | [5] 94 % of control

C1OCOCO1
inactive: [10] 98 % of control | [11] 95 % of control | [12] 95 % of control | dose: 200.0 mg/kg/injection, schedule: Q01DX005 (ip), vehicle: Klucel (hydroxypropylcellulose) (HPC) 109 % of control | dose: 400.0 mg/kg/injection, schedule: Q01DX005 (ip), vehicle: Klucel (hydroxypropylcellulose) (HPC) 101 % of control

CCC(C)CN1CCc2c3c(c(OC)c(OC)c2C1)CCC3 (configuration not stated)
inactive: dose: 100.0 mg/kg/injection, schedule: Q04DX002 (ip), vehicle: saline 101 % of control | dose: 200.0 mg/kg/injection, schedule: Q04DX002 (ip), vehicle: saline 101 % of control

COc1cc(C)c(C(CC(=O)O)CC(=O)N(CCCl)CCCl)cc1C(C)C (configuration not stated)
inactive: dose: 100.0 mg/kg/injection, schedule: Q01DX003 (ip), vehicle: saline 102 % of control | dose: 200.0 mg/kg/injection, schedule: Q01DX003 (ip), vehicle: saline 100 % of control | dose: 400.0 mg/kg/injection, schedule: Q01DX003 (ip), vehicle: saline 100 % of control

CC1CC(c2ccccc2)C(c2ccc(Cl)cc2)C(=O)O1 (configuration not stated)
inactive: [7] 96 % of control | [8] 100 % of control | [9] 100 % of control

CCCCCCCCCOCC(COP(=O)([O-])OCC[N+](C)(C)C)OC (configuration not stated)
inactive: dose: 50.0 mg/kg/injection, schedule: Q01DX005 (ip), vehicle: saline 99 % of control | dose: 100.0 mg/kg/injection, schedule: Q01DX005 (ip), vehicle: saline 103 % of control

Cc1ccc(C)c2c(Nc3ccc4c(c3)OCO4)c(C(=O)O)cnc12
inactive: dose: 60.0 mg/kg/injection, schedule: Q01DX005 (ip), vehicle: Klucel + Tween-80 95 % of control | dose: 120.0 mg/kg/injection, schedule: Q01DX005 (ip), vehicle: Klucel + Tween-80 93 % of control

COc1cccc(N2CCN(CC(O)COc3cc4c(c5c3CCCC5)CCCC4)CC2)c1 (configuration not stated)
inactive: [13] 93 % of control | [14] 92 % of control | dose: 400.0 mg/kg/injection, schedule: Q04DX003 (ip), vehicle: Klucel (hydroxypropylcellulose) (HPC) 91 % of control

C1CN2CCN1CC2
inactive: [15] 99 % of control and 105 % of control | [16] 94 % of control and 108 % of control | [17] 103 % of control and 99 % of control

O=[N+]([O-])c1ccc2c(c1)C1CN(Cc3ccccc31)C2 (configuration not stated)
inactive: dose: 100.0 mg/kg/injection, schedule: Q01DX001 (ip), vehicle: saline with Tween-80 90 % of control | dose: 200.0 mg/kg/injection, schedule: Q01DX001 (ip), vehicle: saline with Tween-80 89 % of control | dose: 400.0 mg/kg/injection, schedule: Q01DX001 (ip), vehicle: saline with Tween-80 97 % of control

C(=C\c1cc2cc(C3=NCCN3)ccc2o1)/c1ccc(C2=NCCN2)cc1
active: dose: 100.0 mg/kg/injection, schedule: Q04DX003 (ip), vehicle: saline 153 % of control and 157 % of control

O=C1OCC2(C(=O)O)C(=O)OCC12 (configuration not stated)
inactive: dose: 8.0 mg/kg/injection, schedule: Q01DX009 (ip), vehicle: saline with Tween-80 94 % of control | dose: 16.0 mg/kg/injection, schedule: Q01DX009 (ip), vehicle: saline with Tween-80 105 % of control and 108 % of control | dose: 32.0 mg/kg/injection, schedule: Q01DX009 (ip), vehicle: saline with Tween-80 107 % of control | dose: 64.0 mg/kg/injection, schedule: Q01DX009 (ip), vehicle: saline with Tween-80 100 % of control and 108 % of control | dose: 128.0 mg/kg/injection, schedule: Q01DX009 (ip), vehicle: saline with Tween-80 97 % of control

C[N+](C)(C)CCCSc1nc2ccccc2[nH]1
inactive: dose: 0.13 mg/kg/injection, schedule: Q01DX009 (ip), vehicle: saline 95 % of control | dose: 0.25 mg/kg/injection, schedule: Q01DX009 (ip), vehicle: saline 103 % of control | dose: 0.5 mg/kg/injection, schedule: Q01DX009 (ip), vehicle: saline 103 % of control | dose: 1.0 mg/kg/injection, schedule: Q01DX009 (ip), vehicle: saline 104 % of control

CNC(=S)N/N=C(\C=N\NC(=S)NC)c1ccc(C)cc1
inactive: [7] 98 % of control | [8] 98 % of control | [9] 90 % of control | dose: 400.0 mg/kg/injection, schedule: Q01DX009 (ip), vehicle: Klucel (hydroxypropylcellulose) (HPC) 90 % of control

Cc1cc(Cl)ccc1-n1nc(C)c2c(N)nc(N)nc21
inactive: [13] 109 % of control | [14] 102 % of control

CN(C)CC1CC1C1(C)c2ccccc2Sc2ccccc21 (configuration not stated)
inactive: [7] 98 % of control | [8] 95 % of control

CC12C=C(C(=O)c3ccccc3)C(CC1)C2(C)C (configuration not stated)
inactive: [1] 100 % of control | [2] 95 % of control | [3] 90 % of control

Oc1ccccc1-c1cc(-c2ccccc2)nc(NCCCCCCNc2nc(-c3ccccc3)cc(-c3ccccc3O)n2)n1
inactive: [11] 90 % of control | [12] 90 % of control

CC1=C(C(N)=O)C(c2ccccc2)NC(=S)N1 (configuration not stated)
inactive: dose: 3.12 mg/kg/injection, schedule: Q01DX005 (ip), vehicle: Klucel (hydroxypropylcellulose) (HPC) 101 % of control | dose: 6.25 mg/kg/injection, schedule: Q01DX005 (ip), vehicle: Klucel (hydroxypropylcellulose) (HPC) 95 % of control | dose: 12.5 mg/kg/injection, schedule: Q01DX005 (ip), vehicle: Klucel (hydroxypropylcellulose) (HPC) 100 % of control | [10] 100 % of control and 101 % of control (2×)

CNC(=O)c1ccccc1
inactive: dose: 25.0 mg/kg/injection, schedule: Q01DX009 (ip), vehicle: saline with Tween-80 98 % of control | dose: 50.0 mg/kg/injection, schedule: Q01DX009 (ip), vehicle: saline with Tween-80 100 % of control | [1] 100 % of control | [2] 100 % of control

O=c1[nH]c(=S)[nH]cc1-c1ccc(Cl)c(Cl)c1
inactive: dose: 50.0 mg/kg/injection, schedule: Q01DX009 (ip), vehicle: suspension in saline 105 % of control | dose: 100.0 mg/kg/injection, schedule: Q01DX009 (ip), vehicle: suspension in saline 104 % of control | dose: 200.0 mg/kg/injection, schedule: Q01DX009 (ip), vehicle: suspension in saline 106 % of control

CCc1cccc(CC)c1N1C(=O)c2cccnc2C1=O
inactive: [15] 100 % of control | [16] 97 % of control | [17] 93 % of control
